Common to all, as to format: biochemical
In test [1] the target is T1, glucocerebrosidase (GCase), recombinant wt. enzyme velaglucerase alfa (Homo sapiens, UniProt P04062).
T1 construct: purchased Shire Human Genetic Therapies, Inc. Vpriv
T1 sequence (P04062 40-536): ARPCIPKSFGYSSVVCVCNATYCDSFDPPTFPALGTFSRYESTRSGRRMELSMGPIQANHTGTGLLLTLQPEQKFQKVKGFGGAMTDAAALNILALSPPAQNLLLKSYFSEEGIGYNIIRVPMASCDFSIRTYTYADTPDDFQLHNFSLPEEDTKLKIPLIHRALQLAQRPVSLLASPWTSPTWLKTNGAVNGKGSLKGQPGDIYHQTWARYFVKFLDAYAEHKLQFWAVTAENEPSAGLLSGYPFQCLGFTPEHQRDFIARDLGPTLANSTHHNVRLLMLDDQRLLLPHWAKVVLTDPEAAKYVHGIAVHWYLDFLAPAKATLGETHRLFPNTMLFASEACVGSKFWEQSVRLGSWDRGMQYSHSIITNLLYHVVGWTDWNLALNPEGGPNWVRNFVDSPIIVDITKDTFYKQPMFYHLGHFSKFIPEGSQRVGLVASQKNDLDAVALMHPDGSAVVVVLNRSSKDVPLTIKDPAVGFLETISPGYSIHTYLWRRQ
The test is described as follows: Glucocerebrosidase activity assay with red substrate (Res-β-glc). To be noted: red substrate enzyme activity assay. The procedure:
The compounds in DMSO solution 0.5 μL/well were transferred to a black 96-well plate (the final titration was 24 nM to 50 μM, 12 concentrations, 2 times dilution). 33.5 μL enzyme solution (7.5 nM final concentration) was transferred to the wells. After 5 min of incubation at room temperature, the enzyme reaction was initiated by the addition of 33 μL/well blue substrate or 66.5 μL/well red substrate. Final concentrations of the blue substrate (4MU-Glc) and red substrate (Res-Glc) were 1.5 mM and 30 μM, respectively. The red substrate reaction was measured in the Biotek Synergy H1 multi-mode plate reader with Ex=573 nm and Em=610 nm at 37° C. every 20 sec for 30 min. The blue substrate reaction was terminated by the addition of 33 μL/well stop solution (1 M NaOH and 1 M glycine mixture, pH 10) after 30 min of incubation at 37° C. The fluorescence was then measured in the plate reader at Ex=365 nm and Em=440 nm. […]
The compounds in DMSO solution 0.5 μL/well was transferred to a black 96-well plate (the final titration was 24 nM to 50 μM, 12 concentrations). […] The red substrate reaction was measured in the Biotek Synergy H1 multi-mode plate reader with Ex=573 nm and Em=610 nm at 37° C. in every 20 seconds for 30 min. […] The fluorescence was then measured in the plate reader with Ex=365 nm and Em=440 nm.

The target in test [2] is T1, glucocerebrosidase (GCase), recombinant wt. enzyme velaglucerase alfa. Description: Glucocerebrosidase activity assay with blue substrate (4MU-Glc). The procedure:
The compounds in DMSO solution 0.5 μL/well were transferred to a black 96-well plate (the final titration was 24 nM to 50 μM, 12 concentrations, 2 times dilution). 33.5 μL enzyme solution (7.5 nM final concentration) was transferred to the wells. After 5 min of incubation at room temperature, the enzyme reaction was initiated by the addition of 33 μL/well blue substrate or 66.5 μL/well red substrate. Final concentrations of the blue substrate (4MU-Glc) and red substrate (Res-Glc) were 1.5 mM and 30 μM, respectively. The red substrate reaction was measured in the Biotek Synergy H1 multi-mode plate reader with Ex=573 nm and Em=610 nm at 37° C. every 20 sec for 30 min. The blue substrate reaction was terminated by the addition of 33 μL/well stop solution (1 M NaOH and 1 M glycine mixture, pH 10) after 30 min of incubation at 37° C. The fluorescence was then measured in the plate reader at Ex=365 nm and Em=440 nm.
The recombinant wt. enzyme velaglucerase alfa (Vpriv®, Shire Human Genetic Therapies, Inc.) was obtained from residual solution after clinical infusions. The GCase activity assay buffer was composed of 50 mM citric acid, 176 mM K2HPO4, and 0.01% Tween-20 at pH 5.9. A solution of 1 M sodium hydroxide and 1 M glycine was used as the stop solution for the 4MU-β-glc substrate assay.
The compounds in DMSO solution 0.5 μL/well was transferred to a black 96-well plate (the final titration was 24 nM to 50 μM, 12 concentrations). 33.5 μL enzyme solution (7.5 nM final concentration) was transferred to the wells. After 5 min of incubation at room temperature, the enzyme reaction was initiated by the addition of 33 μL/well 4MU-Glc substrate or 66.5 μL/well red substrate. Final concentrations of the 4MU-Glc substrate and Res-Glc substrate were 1.5 mM and 30 μM, respectively. The red substrate reaction was measured in the Biotek Synergy H1 multi-mode plate reader with Ex=573 nm and Em=610 nm at 37° C. in every 20 seconds for 30 min. The 4MU-Glc substrate reaction was terminated by the addition of 33 μL/well stop solution (1 M NaOH and 1 M glycine mixture, pH 10) after 30 min of incubation at 37° C. The fluorescence was then measured in the plate reader with Ex=365 nm and Em=440 nm.

Test [3] deals with T2, recombinant wild type GCase (Homo sapiens, UniProt P04062).
T2 construct: purchased Shire Human Genetic Therapies, Inc. Vpriv
T2 sequence (P04062 40-536): T1 sequence (P04062 40-536)
Description: Covalent binding assay: activity of GCase activated by probe 4. To be noted: for enzyme activity comparing to the wt. GCase: covalent activation. The method, then:
To the recombinant wild type enzyme (22 μM, 95 μL, 1 equiv) in 0.1 M phosphate buffer (pH 7.2) was added 2,5-dioxopyrrolidin-1-yl 3-(2-(2-(4-(4-(2,4-dimethylpyrrolo[1,2-a]pyrimidine-8-carboxamido)phenyl)-1H-1,2,3-triazol-1-yl)ethoxy)ethoxy)propanoate (4) in DMSO (0.89 mM, 5 μL, 2 equiv) in one portion, and was vortexed for 5 sec immediately. At indicated time points, the reaction solution (2 μL) was sampled and diluted (1:3125 dilution) into the assay buffer (50 mM citric acid, 176 mM K2HPO4, and 0.01% Tween-20 at pH 5.9). After 2 h the reaction solution was dialyzed three times with 0.1 M phosphate buffer (pH 7.2). The enzyme was adjusted to the same concentration and sampled for activity. The dilution solutions were assayed with three substrates, resorufin substrate, 4-MU substrate, and natural substrate using the method in Example 5 and Example 6 without adding compounds.
The probe 4 was subjected to the covalent binding assay against GCase. The reaction conditions, including the buffer pH value, the concentration of the protein and probe, and the reaction temperature were carefully adjusted to achieve the maximum activation. With the optimized reaction condition, the enzyme activity was activated in a time-dependent manner (FIG. 5). The enzyme could be activated by probe 4 with around 22 and 28 folds activity comparing to the wt. GCase in the 4MU-Glc substrate (FIG. 5A) and red substrate (FIG. 5B) enzyme activity assay respectively.

The mark [4] stands for this setting: Table 1, titration 24 nM to 50 μM, substrate not given, read-out: Ac50.
Setting [5] is: Table 2, values marked activator, read-out: Activity AC50 or IC50.

Molecules are shown by their SMILES. Where two headings read alike, the source gives them in different places.

Take `Cc1cc(C)n2ccc(C(=O)Nc3ccc(-c4cn(CCOCCOCCC(=O)ON5C(=O)CCC5=O)nn4)cc3)c2n1` [No. 2, 2,5-Dioxopyrrolidin-1-yl 3-(2-(2-(4-(4-(2,4-dimethylpyrrolo[1,2-a]pyrimidine-8-carboxamido)phenyl)-1H-1,2,3-triazol-1-yl)ethoxy)ethoxy)propanoate]: the “activation activity, red substrate” value in test [1] is on record as 10 folds. In addition, in test [2] (4MU-Glc substrate enzyme activity assay), the “maximum activity / activation activity” value is 20 folds. Besides, the results for the “enzyme activity comparing to the wt. GCase” value in test [3] (4MU-Glc substrate) and in test [3] (red substrate) were “around 22 folds” and approximately 28 folds, respectively. For the same molecule, the “enzyme activity followed by dialysis” value in test [3] (three substrate assays, in words) was “not decreased significantly”. With `Cc1cc(C)n2ccc(C(=O)Nc3ccc(-c4cn(CCCN)nn4)cc3)c2n1` [compound 64], the AC50 in test [2] (setting [4]) was found to be 7070 nM.

As to `Cc1cc(C)n2ccc(C(=O)Nc3ccc(-c4cn(CCOCCN)nn4)cc3)c2n1` [compound 65], the AC50 in test [2] (setting [4]) is 7080 nM. The same measure, in the same setting: the result for `Cc1cc(C)n2ccc(C(=O)Nc3ccc(-c4cn(CCOCCOCCOCCN)nn4)cc3)c2n1` [compound 66] reads 7940 nM; that for `Cc1cc(C)n2ccc(C(=O)Nc3ccc(-c4cn(CCOCCOCCC(=O)NCCN5CCOCC5)nn4)cc3)c2n1` [compound 67], 8910 nM. Same read-out and setting: the result for `Cc1cc(C)n2ccc(C(=O)Nc3ccc(-c4cn(CCOCCOCCC(=O)NCCC5CCCN5C)nn4)cc3)c2n1` (centres unmarked) [compound 68] reads 10000 nM; that for `Cc1cc(C)n2ccc(C(=O)Nc3ccc(-c4cn(CCOCCOCCC(=O)NC5CCCCC5)nn4)cc3)c2n1` [compound 69], 2000 nM; that for `Cc1cc(C)n2ccc(C(=O)Nc3ccc(-c4cn(CCOCCOCCC(=O)NC5CCC5)nn4)cc3)c2n1` [compound 70], 3550 nM. In the case of `Cc1cc(C)n2ccc(C(=O)Nc3ccc(-c4cn(CCOCCOCCC(=O)NCCOCCOCCOCCNC(=O)CCOCCOCCn5cc(-c6ccc(NC(=O)c7ccn8c(C)cc(C)nc78)cc6)nn5)nn4)cc3)c2n1` [compound 71], the “activator (word in Activity cell)” value in test [2] (Table 2) was “activator”. Moreover, the AC50 in test [2] (setting [5]) was 1260 nM. Taken in the same sequence, the figures for `Cc1cc(C)n2ccc(C(=O)NCc3cccnc3Oc3ccccc3)c2n1` [compound 72] were “activator” and 6130 nM.

For the molecule `Cc1cc(C)n2ccc(C(=O)Nc3ccc(I)cc3)c2n1` [compound 73], the “activator (word in Activity cell)” value in test [2] (Table 2) is “activator”. The AC50 in test [2] (setting [5]) came out at 316 nM. Taken in the same sequence, the figures for `COC(=O)CCCCCCCCC#Cc1ccc(NC(=O)c2ccn3c(C)cc(C)nc23)cc1` [compound 74] were “activator” and 710 nM. On to `Cc1cc(C)n2ccc(C(=O)Nc3ccc(C#CCCCCCCC#Cc4ccc(N)cc4)cc3)c2n1` [compound 75], for which the “activator (word in Activity cell)” value in test [2] (Table 2) is recorded as “activator”. Further, the AC50 in test [2] (setting [5]) was determined as 1260 nM. `Cc1cc(C)n2ccc(C(=O)Nc3ccc(C#CCCCCCCC#Cc4ccc(NC(=O)c5ccn6c(C)cc(C)nc56)cc4)cc3)c2n1` [compound 76]: in test [2] (Table 2), the “activator (word in Activity cell)” value is “activator”. In test [2] (setting [5]), the AC50 was determined as 28200 nM.

Regarding `COC(=O)CCCCCCCCC#Cc1ccc(NC(=O)c2ccn3c(C)cc(-c4cccnc4)nc23)cc1` [compound 78], the “activator (word in Activity cell)” value in test [2] (Table 2) is listed as “activator”. Besides, the AC50 in test [2] (setting [5]) stood at 710 nM.

`Cc1cc(-c2cccnc2)nc2c(C(=O)Nc3ccc(C#CCCCCCCCCC(=O)O)cc3)ccn12` [compound 79]: the “activator (word in Activity cell)” value in test [2] (Table 2) is “activator”. In test [2] (setting [5]), the concentration at half-maximal activity (AC50) was 3540 nM. Turning to `COC(=O)CCCC#Cc1cccc(NC(=O)c2ccn3c(C)cc(C)nc23)c1` [compound 80], the “activator (word in Activity cell)” value in test [2] (Table 2) is “activator”.

As to `COC(=O)CCCCCc1cccc(NC(=O)c2ccn3c(C)cc(C)nc23)c1` [compound 81], the “activator (word in Activity cell)” value in test [2] (Table 2) is on record as “activator”. Further, in test [2] (setting [5]), the AC50 was 1780 nM.

For `Cc1cc(C)n2ccc(C(=O)Nc3ccc(C#CCCCCCCCCC(=O)ON4C(=O)CCC4=O)cc3)c2n1` [compound 82], in test [2] (Table 2), the “activator (word in Activity cell)” value is reported as “activator”. In test [2] (setting [5]), the AC50 was 800 nM. The corresponding values for `Cc1cc(-c2cccnc2)nc2c(C(=O)Nc3ccc(C#CCCCCCCCCC(=O)ON4C(=O)CCC4=O)cc3)ccn12` [compound 83] are “activator” and 560 nM.

By AC50 is commonly meant the midpoint of the concentration-response curve, whichever way the signal moves.

For the origin of these results see US9802942B2, “Substituted 4-methyl-pyrrolo[1,2-A]pyrimidine-8-carboxamide compounds and uses thereof for modulating glucocerebrosidase activity” (Northwestern University, priority 2015, dated 2017).
